The text below walks through data of patent US20170190705A1, “Compositions and Methods for Inhibiting BMP” (THE BRIGHAM AND WOMAN'S HOSPITAL, INC., priority 2014, published 2017).

Common to all, as to assay type: biochemical
One assay concerns the target LYNB (Homo sapiens, UniProt P07948). As to the kind of experiment: Kinome profiling LYNB. To be noted: read-out: Inhibitory activity LYNB; for inhibition at 0.1 µM: 100 nM. The protocol: (§1) . The kinome-wide selectivity was determined following the methods previously reported by Mohedas et al., ACS Chem Biol 2013, 8, 1291-1302 and Sanvitale et al., PLoS One 2013, 8, e62721.

For a further assay, the target named is PDGFRβ (Homo sapiens, UniProt P09619). As to the kind of experiment: Kinome profiling PDGFRβ. The settings on record: for inhibition at 0.1 µM: 100 nM. On the procedure: as §1
Another assay has as its target EPH-A4 (Homo sapiens, UniProt P54764). As to the kind of experiment: Kinome profiling EPH-A4. The settings on record: read-out: Inhibitory activity EPH-A4; for inhibition at 0.1 µM: 100 nM. The protocol:
as §1

In a further assay the target is T1, PRKD3 (Homo sapiens, UniProt O94806).
T1 sequence (O94806 1-890): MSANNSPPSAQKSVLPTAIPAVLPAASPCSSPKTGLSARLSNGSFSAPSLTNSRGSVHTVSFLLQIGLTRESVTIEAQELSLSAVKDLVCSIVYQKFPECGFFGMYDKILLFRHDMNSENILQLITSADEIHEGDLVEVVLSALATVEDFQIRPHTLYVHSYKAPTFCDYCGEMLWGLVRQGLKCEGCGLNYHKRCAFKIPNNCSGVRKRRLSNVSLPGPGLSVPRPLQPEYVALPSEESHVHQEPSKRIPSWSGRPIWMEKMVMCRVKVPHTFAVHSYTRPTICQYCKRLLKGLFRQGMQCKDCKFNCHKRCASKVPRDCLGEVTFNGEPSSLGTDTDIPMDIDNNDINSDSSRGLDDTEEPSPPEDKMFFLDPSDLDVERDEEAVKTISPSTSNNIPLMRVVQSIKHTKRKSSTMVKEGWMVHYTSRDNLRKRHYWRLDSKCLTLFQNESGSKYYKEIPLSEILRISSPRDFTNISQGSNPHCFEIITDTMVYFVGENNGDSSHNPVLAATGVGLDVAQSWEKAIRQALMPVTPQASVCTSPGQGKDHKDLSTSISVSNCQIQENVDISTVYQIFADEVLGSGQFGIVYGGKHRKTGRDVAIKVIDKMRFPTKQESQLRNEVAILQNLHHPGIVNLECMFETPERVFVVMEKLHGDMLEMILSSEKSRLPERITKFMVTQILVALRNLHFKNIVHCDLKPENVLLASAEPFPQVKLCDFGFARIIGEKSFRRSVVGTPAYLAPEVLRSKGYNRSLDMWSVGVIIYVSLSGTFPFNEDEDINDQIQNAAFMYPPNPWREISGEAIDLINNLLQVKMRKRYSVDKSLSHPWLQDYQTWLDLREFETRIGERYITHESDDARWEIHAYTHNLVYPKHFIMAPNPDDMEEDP
As to the kind of experiment: Kinome profiling PRKD3. The settings on record: read-out: Inhibitory activity PRKD3; for inhibition at 0.1 µM: 100 nM. The protocol:
as §1

The next assay concerns the target T2, MST1 (Homo sapiens, UniProt Q13043).
T2 sequence (Q13043 1-487): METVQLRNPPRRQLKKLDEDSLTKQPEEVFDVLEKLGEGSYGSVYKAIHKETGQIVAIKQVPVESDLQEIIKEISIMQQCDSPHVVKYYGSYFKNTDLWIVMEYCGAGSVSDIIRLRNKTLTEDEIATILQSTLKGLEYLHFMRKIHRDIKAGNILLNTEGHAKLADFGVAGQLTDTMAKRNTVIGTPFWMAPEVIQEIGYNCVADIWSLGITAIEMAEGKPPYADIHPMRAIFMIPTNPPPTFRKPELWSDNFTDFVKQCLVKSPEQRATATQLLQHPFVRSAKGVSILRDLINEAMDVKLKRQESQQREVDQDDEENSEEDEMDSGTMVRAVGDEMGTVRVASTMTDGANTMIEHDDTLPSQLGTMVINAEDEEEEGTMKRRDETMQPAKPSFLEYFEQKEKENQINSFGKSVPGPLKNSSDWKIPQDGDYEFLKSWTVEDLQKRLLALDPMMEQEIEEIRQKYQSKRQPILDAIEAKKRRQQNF
As to the kind of experiment: Kinome profiling MST1. The settings on record: read-out: Inhibitory activity MST1; for inhibition at 0.1 µM: 100 nM. On the procedure:
as §1

The next assay concerns the target FGFR3 (Homo sapiens, UniProt P22607). As to the kind of experiment: Kinome profiling FGFR3. The settings on record: read-out: Inhibitory activity FGFR3; for inhibition at 0.1 µM: 100 nM. On the procedure:
as §1

A further assay has as its target AKT2 (Homo sapiens, UniProt P31751). As to the kind of experiment: Kinome profiling AKT2. The settings on record: read-out: Inhibitory activity AKT2; for inhibition at 0.1 µM: 100 nM. On the procedure:
as §1

The target of the next assay is T3, IKK-α (Homo sapiens, UniProt O15111).
T3 sequence (O15111 1-745): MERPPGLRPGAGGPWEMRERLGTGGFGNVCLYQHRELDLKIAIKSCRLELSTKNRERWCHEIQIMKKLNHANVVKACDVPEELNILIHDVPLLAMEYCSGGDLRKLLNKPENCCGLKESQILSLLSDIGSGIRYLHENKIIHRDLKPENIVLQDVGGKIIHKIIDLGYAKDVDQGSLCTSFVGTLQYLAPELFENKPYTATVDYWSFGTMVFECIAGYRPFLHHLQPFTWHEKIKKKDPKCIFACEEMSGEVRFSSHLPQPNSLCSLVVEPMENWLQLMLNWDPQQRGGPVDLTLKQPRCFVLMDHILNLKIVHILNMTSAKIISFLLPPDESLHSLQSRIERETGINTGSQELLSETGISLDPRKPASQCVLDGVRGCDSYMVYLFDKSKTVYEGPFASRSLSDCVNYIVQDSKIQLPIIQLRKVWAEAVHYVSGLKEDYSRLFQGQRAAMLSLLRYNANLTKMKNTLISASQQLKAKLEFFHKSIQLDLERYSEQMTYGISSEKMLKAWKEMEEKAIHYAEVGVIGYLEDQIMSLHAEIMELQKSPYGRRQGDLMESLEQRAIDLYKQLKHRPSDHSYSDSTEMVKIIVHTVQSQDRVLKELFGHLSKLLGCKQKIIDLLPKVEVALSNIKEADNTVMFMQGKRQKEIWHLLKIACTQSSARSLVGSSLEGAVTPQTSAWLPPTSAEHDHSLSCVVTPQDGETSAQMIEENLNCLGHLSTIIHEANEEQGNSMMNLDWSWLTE
As to the kind of experiment: Kinome profiling IKK-α. The settings on record: read-out: Inhibitory activity IKK-α; for inhibition at 0.1 µM: 100 nM. The protocol:
as §1

The next assay concerns the target SYK (Homo sapiens, UniProt P43405). As to the kind of experiment: Kinome profiling SYK. The settings on record: read-out: Inhibitory activity SYK; for inhibition at 0.1 µM: 100 nM. The protocol:
as §1

[1] abbreviates: read-out: Inhibitory activity PDGFRβ.
Setting [2] is: Table 4, read-out: Inhibitory Activity PDGFR-BETA.

Where two headings read alike, the source gives them in different places.

FGFR3, sequence (P22607 23-806): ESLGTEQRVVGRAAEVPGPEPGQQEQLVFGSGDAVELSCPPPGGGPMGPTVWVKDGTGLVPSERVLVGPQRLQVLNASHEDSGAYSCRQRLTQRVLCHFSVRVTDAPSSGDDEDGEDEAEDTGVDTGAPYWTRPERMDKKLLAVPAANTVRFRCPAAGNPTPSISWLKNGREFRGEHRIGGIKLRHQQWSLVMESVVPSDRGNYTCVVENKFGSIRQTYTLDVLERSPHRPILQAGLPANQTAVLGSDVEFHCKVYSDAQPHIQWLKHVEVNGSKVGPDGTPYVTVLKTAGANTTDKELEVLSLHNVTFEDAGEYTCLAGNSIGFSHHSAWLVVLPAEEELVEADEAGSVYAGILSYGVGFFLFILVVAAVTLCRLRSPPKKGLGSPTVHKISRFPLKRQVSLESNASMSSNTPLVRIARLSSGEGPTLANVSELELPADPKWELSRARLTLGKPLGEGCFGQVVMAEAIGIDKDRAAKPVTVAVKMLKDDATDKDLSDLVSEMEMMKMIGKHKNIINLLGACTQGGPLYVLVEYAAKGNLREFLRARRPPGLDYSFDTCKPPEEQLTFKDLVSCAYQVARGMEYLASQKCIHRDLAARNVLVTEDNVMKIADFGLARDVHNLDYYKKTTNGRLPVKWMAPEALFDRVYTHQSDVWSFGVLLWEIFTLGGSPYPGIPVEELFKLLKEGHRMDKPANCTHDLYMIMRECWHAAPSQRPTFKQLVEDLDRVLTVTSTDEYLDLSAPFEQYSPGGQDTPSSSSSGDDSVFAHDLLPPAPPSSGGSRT
AKT2, sequence (P31751 whole entry): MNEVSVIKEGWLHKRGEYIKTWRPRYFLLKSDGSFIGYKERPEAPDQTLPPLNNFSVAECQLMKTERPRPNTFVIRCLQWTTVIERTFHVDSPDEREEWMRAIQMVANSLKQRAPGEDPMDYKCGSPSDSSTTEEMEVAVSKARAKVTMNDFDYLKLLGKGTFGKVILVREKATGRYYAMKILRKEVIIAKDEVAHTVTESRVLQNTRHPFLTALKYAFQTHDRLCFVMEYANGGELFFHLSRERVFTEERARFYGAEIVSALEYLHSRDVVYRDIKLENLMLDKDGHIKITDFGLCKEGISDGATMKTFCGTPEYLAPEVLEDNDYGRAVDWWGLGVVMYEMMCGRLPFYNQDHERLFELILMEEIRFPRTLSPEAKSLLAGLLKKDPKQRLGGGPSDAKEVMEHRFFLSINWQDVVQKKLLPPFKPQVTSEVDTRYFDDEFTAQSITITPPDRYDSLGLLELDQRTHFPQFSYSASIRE
LYNB, sequence (P07948 1-491 isoform P07948-2): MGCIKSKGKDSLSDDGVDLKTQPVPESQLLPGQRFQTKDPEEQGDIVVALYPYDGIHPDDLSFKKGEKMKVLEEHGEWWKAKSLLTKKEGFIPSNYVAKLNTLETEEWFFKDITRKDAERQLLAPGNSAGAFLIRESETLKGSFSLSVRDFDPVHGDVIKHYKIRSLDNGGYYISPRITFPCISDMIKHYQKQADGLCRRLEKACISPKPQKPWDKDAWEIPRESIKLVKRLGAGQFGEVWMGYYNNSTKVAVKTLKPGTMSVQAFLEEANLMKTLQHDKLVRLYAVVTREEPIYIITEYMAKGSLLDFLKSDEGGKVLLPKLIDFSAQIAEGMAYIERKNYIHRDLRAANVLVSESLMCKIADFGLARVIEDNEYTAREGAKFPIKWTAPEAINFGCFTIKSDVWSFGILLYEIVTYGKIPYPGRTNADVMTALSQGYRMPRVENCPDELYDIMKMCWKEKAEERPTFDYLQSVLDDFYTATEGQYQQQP
EPH-A4, sequence (P54764 20-986): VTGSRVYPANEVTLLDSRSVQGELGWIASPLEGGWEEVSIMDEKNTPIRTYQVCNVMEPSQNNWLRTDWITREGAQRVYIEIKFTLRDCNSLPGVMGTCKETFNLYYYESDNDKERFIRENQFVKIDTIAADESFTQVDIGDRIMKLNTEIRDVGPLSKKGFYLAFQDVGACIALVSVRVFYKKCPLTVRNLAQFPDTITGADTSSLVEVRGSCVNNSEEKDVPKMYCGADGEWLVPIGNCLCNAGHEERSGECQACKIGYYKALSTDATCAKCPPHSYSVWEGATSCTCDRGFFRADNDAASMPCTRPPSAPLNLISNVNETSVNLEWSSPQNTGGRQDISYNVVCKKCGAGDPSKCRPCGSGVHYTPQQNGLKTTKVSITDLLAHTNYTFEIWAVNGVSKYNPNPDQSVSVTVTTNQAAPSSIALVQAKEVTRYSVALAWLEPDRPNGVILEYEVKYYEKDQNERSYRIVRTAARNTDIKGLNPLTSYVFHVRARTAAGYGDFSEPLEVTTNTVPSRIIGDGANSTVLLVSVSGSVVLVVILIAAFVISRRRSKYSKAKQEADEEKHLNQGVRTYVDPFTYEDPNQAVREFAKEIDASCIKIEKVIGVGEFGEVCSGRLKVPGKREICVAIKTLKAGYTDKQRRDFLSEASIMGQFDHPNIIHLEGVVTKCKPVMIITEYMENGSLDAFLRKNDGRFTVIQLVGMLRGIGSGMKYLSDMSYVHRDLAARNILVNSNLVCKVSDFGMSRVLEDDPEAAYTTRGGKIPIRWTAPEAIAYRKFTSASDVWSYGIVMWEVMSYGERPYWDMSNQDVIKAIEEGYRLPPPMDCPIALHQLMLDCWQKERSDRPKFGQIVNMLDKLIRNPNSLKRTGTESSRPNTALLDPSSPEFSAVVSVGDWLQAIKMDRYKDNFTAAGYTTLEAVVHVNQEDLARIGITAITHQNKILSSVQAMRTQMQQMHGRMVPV
PDGFRβ, sequence (P09619 33-1106): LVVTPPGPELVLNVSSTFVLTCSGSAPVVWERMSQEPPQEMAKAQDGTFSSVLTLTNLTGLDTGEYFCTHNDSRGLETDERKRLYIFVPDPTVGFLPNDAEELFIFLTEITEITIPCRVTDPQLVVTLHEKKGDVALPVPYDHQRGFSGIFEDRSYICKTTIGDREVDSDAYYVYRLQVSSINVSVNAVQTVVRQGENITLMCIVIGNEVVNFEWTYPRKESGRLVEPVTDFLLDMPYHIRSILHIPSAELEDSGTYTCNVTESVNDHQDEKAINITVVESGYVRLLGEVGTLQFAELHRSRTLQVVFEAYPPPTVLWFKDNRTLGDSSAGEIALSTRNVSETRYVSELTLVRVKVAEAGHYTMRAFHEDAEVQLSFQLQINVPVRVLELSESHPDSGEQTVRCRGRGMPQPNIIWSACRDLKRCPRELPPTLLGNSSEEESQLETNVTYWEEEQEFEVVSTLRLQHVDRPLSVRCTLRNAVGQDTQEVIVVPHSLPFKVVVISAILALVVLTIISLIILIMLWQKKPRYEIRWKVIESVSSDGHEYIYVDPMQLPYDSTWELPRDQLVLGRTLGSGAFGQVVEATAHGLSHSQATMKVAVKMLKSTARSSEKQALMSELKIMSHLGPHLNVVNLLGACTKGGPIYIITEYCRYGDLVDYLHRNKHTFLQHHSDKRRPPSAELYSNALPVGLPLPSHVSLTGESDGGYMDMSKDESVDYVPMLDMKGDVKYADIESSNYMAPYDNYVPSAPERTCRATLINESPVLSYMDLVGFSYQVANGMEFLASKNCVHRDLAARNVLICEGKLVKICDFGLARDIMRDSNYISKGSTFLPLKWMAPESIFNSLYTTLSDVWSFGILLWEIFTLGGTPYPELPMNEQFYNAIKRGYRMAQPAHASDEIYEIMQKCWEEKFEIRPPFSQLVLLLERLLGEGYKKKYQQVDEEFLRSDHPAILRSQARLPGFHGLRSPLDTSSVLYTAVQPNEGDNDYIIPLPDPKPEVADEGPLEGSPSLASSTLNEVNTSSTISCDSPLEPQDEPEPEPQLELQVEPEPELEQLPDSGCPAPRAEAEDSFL

Take `COc1cc(-c2cc(-c3ccc(N4CCNCC4)cc3)cnc2N)cc(OC)c1OC` [Compound 15, 5-(4-(piperazin-1-yl)phenyl)-3-(3,4,5-trimethoxyphenyl)pyridin-2-amine]: the inhibition at 0.1 µM is 35% on LYNB; 47% on PDGFRβ (setting [1]); -1% on EPH-A4; 7% at PRKD3; 3% at MST1; 2% on FGFR3. Also, the inhibition at 0.1 µM on AKT2 is 2%; at IKK-α, -1%; at SYK, 1%. The inhibition at 1 µM is 82% on LYNB; 77% at PDGFRβ (setting [1]); 45% at EPH-A4; 38% on PRKD3; 10% on MST1; 6% on FGFR3. Moreover, the inhibition at 1 µM is 2% on AKT2, -2% at IKK-α and -4% at SYK.

As to `COc1cc(-c2cc(-c3ccc(N4CCNCC4)cc3)cnc2C)cc(OC)c1OC` [Compound 10, 1-(4-(6-methyl-5-(3,4,5-trimethoxyphenyl)pyridin-3-yl)phenyl)piperazine], the inhibition at 0.1 µM at LYNB turned out to be 8%; at PDGFRβ (setting [2]), 17%; at PDGFRβ (setting [1]), 17%; at EPH-A4 it was 7%; at PRKD3, 2%; at MST1, 3%. Moreover, the inhibition at 0.1 µM is 0% on FGFR3, -1% on AKT2, 3% on IKK-α and 0% on SYK. Moreover, the inhibition at 1 µM on LYNB is 30%; at PDGFRβ (setting [2]), 64%; on PDGFRβ (setting [1]) it was 64%; on EPH-A4, 5%; at PRKD3, 21%; on MST1 it was 3%. Also, the inhibition at 1 µM is 0% on FGFR3, -1% on AKT2, 4% on IKK-α and -1% at SYK.
